From PubChem BioAssay AID330 (DTP/NCI, 2004)
“And” between values parts separate entries of the source, which are not always exact repeats. Equal entries are not always repeated. Toxic doses and inconclusive results are not listed. How the source made its calls: active means survival T/C of 150% or more; inactive means T/C below 125% in these data.

Test system: P388 leukemia ip, CD2F1 mice, survival T/C
Test: NCI In Vivo Anticancer Drug Screen. Data for tumor model P388 Leukemia (intraperitoneal) in CD2F1 (CDF1) mice
Conditions: endpoint: median survival time, higher = longer survival
Procedure, shortened: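 Mice carrying the transplanted tumor received test compound or vehicle. Survival was recorded in each group, and the value is the treated-group measurement divided by that of the vehicle-treated control group.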

[1] = dose: 50.0 mg/kg/injection, schedule: Q01DX009 (ip), vehicle: saline
[2] = dose: 50.0 mg/kg/injection, schedule: Q01DX005 (ip), vehicle: saline with Tween-80
[3] = dose: 100.0 mg/kg/injection, schedule: Q01DX005 (ip), vehicle: saline with Tween-80
[4] = dose: 200.0 mg/kg/injection, schedule: Q01DX005 (ip), vehicle: saline with Tween-80
[5] = dose: 100.0 mg/kg/injection, schedule: Q01DX009 (ip), vehicle: Klucel (hydroxypropylcellulose) (HPC)
[6] = dose: 60.0 mg/kg/injection, schedule: Q01DX005 (ip), vehicle: saline with Tween-80
[7] = dose: 120.0 mg/kg/injection, schedule: Q01DX005 (ip), vehicle: saline with Tween-80
[8] = dose: 240.0 mg/kg/injection, schedule: Q01DX005 (ip), vehicle: saline with Tween-80
[9] = dose: 50.0 mg/kg/injection, schedule: Q01DX005 (ip), vehicle: Klucel (hydroxypropylcellulose) (HPC)
[10] = dose: 100.0 mg/kg/injection, schedule: Q01DX005 (ip), vehicle: Klucel (hydroxypropylcellulose) (HPC)
[11] = dose: 200.0 mg/kg/injection, schedule: Q01DX005 (ip), vehicle: Klucel (hydroxypropylcellulose) (HPC)
[12] = dose: 25.0 mg/kg/injection, schedule: Q01DX005 (ip), vehicle: saline with Tween-80

Measured: T/C

C[N+](C)(C)CCO
inactive: dose: 12.5 mg/kg/injection, schedule: Q01DX009 (ip), vehicle: saline 105 % of control | dose: 25.0 mg/kg/injection, schedule: Q01DX009 (ip), vehicle: saline 98 % of control | [1] 96 % of control

Oc1ccc(O)c2c(O)c3ccccc3c(O)c12
inactive: [2] 102 % of control | [3] 107 % of control | [4] 93 % of control

CSc1c(C#N)c(N)nn1-c1ccccn1
inactive: dose: 100.0 mg/kg/injection, schedule: Q04DX002 (ip), vehicle: saline with Tween-80 100 % of control | dose: 200.0 mg/kg/injection, schedule: Q04DX002 (ip), vehicle: saline with Tween-80 98 % of control | dose: 400.0 mg/kg/injection, schedule: Q04DX002 (ip), vehicle: saline with Tween-80 99 % of control

NOCc1ccccc1
inactive: [5] 93 % of control | dose: 200.0 mg/kg/injection, schedule: Q01DX009 (ip), vehicle: Klucel (hydroxypropylcellulose) (HPC) 86 % of control

CC1=[N+]([O-])[N+]([O-])=C(C)C1=O
inactive: dose: 6.25 mg/kg/injection, schedule: Q01DX009 (ip), vehicle: Klucel (hydroxypropylcellulose) (HPC) 91 % of control | dose: 12.5 mg/kg/injection, schedule: Q01DX009 (ip), vehicle: Klucel (hydroxypropylcellulose) (HPC) 100 % of control

CC(=O)c1cc(Cl)ccc1OCC(O)CNc1ccccc1C(=O)c1ccccc1 (centres undefined)
inactive: [6] 103 % of control | [7] 87 % of control | [8] 87 % of control

CC(=O)NC(=O)CCCCCCC(=O)NC(C)=O
inactive: [9] 88 % of control

Cc1nc2ccccc2c(=O)n1C(C)C
inactive: [1] 99 % of control | dose: 100.0 mg/kg/injection, schedule: Q01DX009 (ip), vehicle: saline 100 % of control | dose: 200.0 mg/kg/injection, schedule: Q01DX009 (ip), vehicle: saline 104 % of control

O=C1OC(/C=C/c2ccccc2)=NC/1=C\c1ccccc1
inactive: dose: 60.0 mg/kg/injection, schedule: Q01DX005 (ip), vehicle: Klucel + Tween-80 103 % of control | dose: 120.0 mg/kg/injection, schedule: Q01DX005 (ip), vehicle: Klucel + Tween-80 99 % of control | dose: 240.0 mg/kg/injection, schedule: Q01DX005 (ip), vehicle: Klucel + Tween-80 97 % of control

CC1C=CC(C)C2C(=O)C3C(C)C=CC(C)C3C(=O)C12 (centres undefined)
inactive: [9] 93 % of control | [10] 97 % of control | [11] 87 % of control

Cc1cnc(C=O)c2cccc([N+](=O)[O-])c12
inactive: dose: 50.0 mg/kg/injection, schedule: Q01DX009 (ip), vehicle: Klucel (hydroxypropylcellulose) (HPC) 105 % of control | [5] 112 % of control

CCOC(=O)C1CCC=CC1OC(C)=O (centres undefined)
inactive: dose: 100.0 mg/kg/injection, schedule: Q01DX001 (ip), vehicle: olive oil, sesame oil, peanut oil 112 % of control | dose: 200.0 mg/kg/injection, schedule: Q01DX001 (ip), vehicle: olive oil, sesame oil, peanut oil 108 % of control | dose: 400.0 mg/kg/injection, schedule: Q01DX001 (ip), vehicle: olive oil, sesame oil, peanut oil 107 % of control

Cc1[nH]nc2oc(=O)c3ccccc3c12
inactive: [9] 105 % of control | [10] 102 % of control | [11] 102 % of control

Cn1c(C(=O)N/N=C\C2OC3OC(C)(C)OC3C3OC(C)(C)OC23)cc2cc(OCc3ccccc3)ccc21 (centres undefined)
inactive: [9] 103 % of control | [10] 101 % of control | [11] 97 % of control

NCCCCC(C(=O)NC(CO)C(=O)O)N(C(=O)OCc1ccccc1)C(=O)OCc1ccccc1 (centres undefined)
inactive: [2] 101 % of control | [3] 101 % of control | [4] 90 % of control

Oc1ccc(Br)cc1C=NCCS
inactive: dose: 15.0 mg/kg/injection, schedule: Q01DX005 (ip), vehicle: saline with Tween-80 97 % of control | dose: 30.0 mg/kg/injection, schedule: Q01DX005 (ip), vehicle: saline with Tween-80 94 % of control | [8] 89 % of control

O=c1[nH]cnc2cccc(Cl)c12
inactive: [6] 90 % of control | [7] 90 % of control | [8] 100 % of control

COC(c1ccccc1)C(Br)c1ccccc1 (centres undefined)
inactive: dose: 100.0 mg/kg/injection, schedule: Q01DX001 (ip), vehicle: saline with Tween-80 104 % of control | dose: 200.0 mg/kg/injection, schedule: Q01DX001 (ip), vehicle: saline with Tween-80 95 % of control | dose: 400.0 mg/kg/injection, schedule: Q01DX001 (ip), vehicle: saline with Tween-80 104 % of control

CCCCCCCCCc1cccc(N2C(N)=NC(N)=NC2(C)C)c1
inactive: dose: 7.5 mg/kg/injection, schedule: Q01DX005 (ip), vehicle: saline with Tween-80 106 % of control

CC(C)C1=CC2=C[C@H](O)[C@H]3C(C)(C)CCC[C@]3(C)C2=C(O)C1=O
inactive: dose: 1.25 mg/kg/injection, schedule: Q01DX009 (ip), vehicle: saline with Tween-80 109 % of control and 91 % of control | dose: 1.25 mg/kg/injection, schedule: Q01DX009 (ip), vehicle: suspension in saline 103 % of control | dose: 1.75 mg/kg/injection, schedule: Q01DX009 (ip), vehicle: saline with Tween-80 108 % of control | dose: 2.5 mg/kg/injection, schedule: Q01DX009 (ip), vehicle: saline with Tween-80 100 % of control and 111 % of control and 123 % of control | dose: 2.5 mg/kg/injection, schedule: Q01DX009 (ip), vehicle: suspension in saline 109 % of control | dose: 5.0 mg/kg/injection, schedule: Q01DX009 (ip), vehicle: saline with Tween-80 104 % of control and 108 % of control and 111 % of control | dose: 5.0 mg/kg/injection, schedule: Q01DX009 (ip), vehicle: suspension in saline 100 % of control | dose: 10.0 mg/kg/injection, schedule: Q01DX009 (ip), vehicle: saline with Tween-80 107 % of control and 109 % of control and 113 % of control | dose: 10.0 mg/kg/injection, schedule: Q01DX009 (ip), vehicle: suspension in saline 113 % of control | dose: 20.0 mg/kg/injection, schedule: Q01DX009 (ip), vehicle: suspension in saline 109 % of control

CCOCN(COCC)C(C)Cc1ccccc1 (centres undefined)
inactive: dose: 3.13 mg/kg/injection, schedule: Q01DX009 (ip), vehicle: saline with Tween-80 104 % of control | dose: 6.25 mg/kg/injection, schedule: Q01DX009 (ip), vehicle: saline with Tween-80 107 % of control | dose: 12.5 mg/kg/injection, schedule: Q01DX009 (ip), vehicle: saline with Tween-80 114 % of control | dose: 25.0 mg/kg/injection, schedule: Q01DX009 (ip), vehicle: saline with Tween-80 123 % of control

COc1cc2c(cc1OC)C(=O)c1ncccc1C2=O
inactive: dose: 12.5 mg/kg/injection, schedule: Q01DX009 (ip), vehicle: other 104 % of control | dose: 25.0 mg/kg/injection, schedule: Q01DX009 (ip), vehicle: other 100 % of control | dose: 50.0 mg/kg/injection, schedule: Q01DX009 (ip), vehicle: other 99 % of control | dose: 100.0 mg/kg/injection, schedule: Q01DX009 (ip), vehicle: other 90 % of control | dose: 200.0 mg/kg/injection, schedule: Q01DX009 (ip), vehicle: other 89 % of control

CN(C)CCN(Cc1ccco1)c1ccccn1
inactive: dose: 12.5 mg/kg/injection, schedule: Q01DX005 (ip), vehicle: saline with Tween-80 92 % of control | dose: 12.5 mg/kg/injection, schedule: Q01DX005 (ip), vehicle: saline 96 % of control and 98 % of control | [12] 100 % of control | dose: 25.0 mg/kg/injection, schedule: Q01DX005 (ip), vehicle: saline 96 % of control and 99 % of control | dose: 50.0 mg/kg/injection, schedule: Q01DX005 (ip), vehicle: saline 102 % of control [middle of 4 runs]

CC(C)N1C(=O)N(Cl)C2C1N(Cl)C(=O)N2Cl (centres undefined)
inactive: [12] 99 % of control | [2] 108 % of control and 122 % of control | [3] 122 % of control | [4] 113 % of control and 117 % of control

O=C(NC(C(=O)O)c1ccc(CCl)cc1)c1ccccc1 (centres undefined)
inactive: [2] 107 % of control | [3] 105 % of control

C1CNC(C2=NCCN2)=N1
inactive: [2] 108 % of control | [3] 101 % of control | [4] 97 % of control

Cc1cn(O)c(=N)c(C(N)=O)n1
inactive: dose: 37.5 mg/kg/injection, schedule: Q01DX009 (ip), vehicle: saline with Tween-80 90 % of control | dose: 75.0 mg/kg/injection, schedule: Q01DX009 (ip), vehicle: saline with Tween-80 100 % of control | dose: 150.0 mg/kg/injection, schedule: Q01DX009 (ip), vehicle: saline with Tween-80 107 % of control

CSc1nc(NC2OCC(O)C(O)C2O)c(Cl)c(=O)n1C (centres undefined)
inactive: [6] 103 % of control | [7] 104 % of control | [8] 100 % of control
